Patent US20220031740A1, “THERAPEUTIC USES OF ATOMIC QUANTUM CLUSTERS” (priority 2018, published 2022)

Key:
[1] = system: E. Co/i; assay: E. coli survival with Ag5-AQC and DTT; format: cell-based; settings: DTT at 10 mM
Excerpt: The mechanism responsible is thought to be thiol oxidation. […] The opposite is also true, i.e. Ag5-AQCs rescue E. Co/i from DTT action as expected from to redox agents with opposed action.

[2] = system: A549luc orthotopic lung tumour and mediastinal lymph node metastases; assay: A549luc orthotopic lung cancer model metastasizing to mediastinal lymph nodes; format: in vivo
Method: (a) Ag5-AQCs cause a reduction in tumour growth in mice with orthotopic brain cancer. Experimental groups: Ag5-AQCs (0.25 mg/kg) and control (no treatment). (b-d) Ag5-AQCs treatment causes a reduction in tumour growth in mice with orthotopic lung cancer. (b) Tumour growth measured in vivo by luminescence (IVIS® Spectrum). Black arrows represent treatment administration times in the study. (c) Luciferase activity quantification measured ex vivo in lung and in mediastinal lymph nodes. (d) Immunohistochemical staining of lung tumour (arrows indicate the tumour nodules). Experimental groups: CDDP (4 mg/kg), Ag5-AQCs (0.25 mg/kg) and control (no treatment). (e) Body weight over the whole experiment. […]
For Ag5-AQCs treatment, mice were divided into three groups (5 animals in each): the first group (control) underwent no treatment, the second group was treated with cisplatin (CDDP) (four single doses, 4 mg/kg) and the third group was treated with Ag5-AQCs (four single doses, 0.25 mg/kg). […] The lung and mediastinal lymph nodes were removed and luminescence was quantified per microgram of protein in body as described in Borrajo et al. (2016). […]
Another limiting factor in cancer treatment is the occurrence of metastasis. […] In this model the occurrence of metastasis to lymph nodes is well established and could be detected 13 days after the injection of tumour cells. […]

[3] = system: Nrf2; assay: Nrf2 location by immunofluorescence in HEK293 cells; format: cell-based, human; settings: HEK293, 30 minutes; Ag5-AQC IC50, NEM 100 μM

O[C@H](CS)[C@H](O)CS (racemic) [DTT, Dithiothreitol]
E. coli survival, DTT alone [1]: toxic for bacteria

[NH2][Pt]([NH2])([Cl])[Cl] [CDDP, Cisplatin]
luciferase activity in the primary tumour and in the mediastinal lymph nodes (ex vivo) ([2]; day 37, vs control mice): significant reduction in luciferase activity | tumour size in lung (in vivo bioluminescence) ([2]; intravenously days 20, 22, 24, 26, CDDP 4 mg/kg, Ag5-AQC 0.25 mg/kg, 37 days, vs control): significant reduction in tumour size

CCN1C(=O)C=CC1=O [NEM, N-ethylmaleimide]
Nrf2 staining and nuclear location [3]: increased the nuclear accumulation of Nrf2
